Data published in the NIST ThermoML archive (doi:10.1016/j.jct.2007.07.005).

Experiment: xn = mol fraction of the nth substance listed
Conditions: Fluid (supercritical or subcritical phases), vibrating tube

CCCCCO [pentan-1-ol] + O=C=O
Conditions | mass density [kg/m3]
362.59 K, 3010 kPa, x2 = 0 | 762.29
362.59 K, 3998 kPa, x2 = 0 | 763.28
362.59 K, 5006 kPa, x2 = 0 | 764.25
362.59 K, 6013 kPa, x2 = 0 | 765.23
362.59 K, 7014 kPa, x2 = 0 | 766.21
362.59 K, 8007 kPa, x2 = 0 | 767.16
362.59 K, 9020 kPa, x2 = 0 | 768.1
362.59 K, 10006 kPa, x2 = 0 | 769.02
362.59 K, 10991 kPa, x2 = 0 | 769.93
362.59 K, 12025 kPa, x2 = 0 | 770.87
362.59 K, 13008 kPa, x2 = 0 | 771.76
362.59 K, 13998 kPa, x2 = 0 | 772.62
362.59 K, 15017 kPa, x2 = 0 | 773.51
362.59 K, 16000 kPa, x2 = 0 | 774.37
362.59 K, 17013 kPa, x2 = 0 | 775.24
362.59 K, 18032 kPa, x2 = 0 | 776.11
362.59 K, 19003 kPa, x2 = 0 | 776.9
362.59 K, 20030 kPa, x2 = 0 | 777.77
362.59 K, 20987 kPa, x2 = 0 | 778.55
362.59 K, 22033 kPa, x2 = 0 | 779.4
362.59 K, 23000 kPa, x2 = 0 | 780.2
362.59 K, 24031 kPa, x2 = 0 | 781.02
362.59 K, 25026 kPa, x2 = 0 | 781.82
362.64 K, 10025 kPa, x2 = 0.3624 | 777.81
362.64 K, 11003 kPa, x2 = 0.3624 | 779.19
362.64 K, 12003 kPa, x2 = 0.3624 | 780.55
362.64 K, 12022 kPa, x2 = 0.4651 | 773.96
362.64 K, 13017 kPa, x2 = 0.3624 | 781.9
362.64 K, 13060 kPa, x2 = 0.4651 | 776.14
362.64 K, 14013 kPa, x2 = 0.3624 | 783.21
362.64 K, 14031 kPa, x2 = 0.4651 | 778.14
362.64 K, 15047 kPa, x2 = 0.4651 | 780.2
362.64 K, 15050 kPa, x2 = 0.3624 | 784.56
362.64 K, 16009 kPa, x2 = 0.3624 | 785.79
362.64 K, 16038 kPa, x2 = 0.4651 | 782.15
362.64 K, 17020 kPa, x2 = 0.4651 | 784.05
362.64 K, 17038 kPa, x2 = 0.3624 | 787.08
362.64 K, 17996 kPa, x2 = 0.3624 | 788.26
362.64 K, 18020 kPa, x2 = 0.4651 | 785.95
362.64 K, 19025 kPa, x2 = 0.3624 | 789.49
362.64 K, 19043 kPa, x2 = 0.4651 | 787.85
362.64 K, 20005 kPa, x2 = 0.3624 | 790.66
362.64 K, 20038 kPa, x2 = 0.4651 | 789.76
362.64 K, 21006 kPa, x2 = 0.3624 | 791.85
362.64 K, 21016 kPa, x2 = 0.4651 | 791.43
362.64 K, 22040 kPa, x2 = 0.3624 | 793.05
362.64 K, 22046 kPa, x2 = 0.4651 | 793.2
362.64 K, 22994 kPa, x2 = 0.3624 | 794.14
362.64 K, 23026 kPa, x2 = 0.4651 | 794.9
362.64 K, 24043 kPa, x2 = 0.3624 | 795.34
362.64 K, 24056 kPa, x2 = 0.4651 | 796.64
362.64 K, 25004 kPa, x2 = 0.3624 | 796.42
362.66 K, 3020 kPa, x2 = 0.0816 | 763.81
362.66 K, 3996 kPa, x2 = 0.0816 | 764.91
362.66 K, 4993 kPa, x2 = 0.0816 | 765.97
362.66 K, 6014 kPa, x2 = 0.0816 | 767.08
362.66 K, 7003 kPa, x2 = 0.0816 | 768.13
362.66 K, 8000 kPa, x2 = 0.0816 | 769.18
362.66 K, 9015 kPa, x2 = 0.0816 | 770.22
362.66 K, 10003 kPa, x2 = 0.0816 | 771.21
362.66 K, 11015 kPa, x2 = 0.0816 | 772.24
362.66 K, 12001 kPa, x2 = 0.0816 | 773.21
